Measured values reported in ChEMBL document CHEMBL1201862, “PubChem BioAssay data set” (2004).
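In this assay, cells in 96-well plates receive the compound at five concentrations for 48 hours. Endpoints are linearly interpolated between the surrounding concentrations. GI50: concentration for 50% inhibition of growth.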 Active and inactive are the calls of the source. Rule as the data show it: active = GI50 up to about 1.1 µM and inactive = higher.

Columns and labels:
Test in all cases: growth of human tumour cells (NCI), 48 h
[1] = system: NCI-H460
[2] = system: SF-539
[3] = system: MOLT-4
[4] = system: UO-31
[5] = system: HOP-92
[6] = system: KM12
[7] = system: SN12C
[8] = system: SF-268
[9] = system: SK-MEL-2
[10] = system: OVCAR-5
[11] = system: HT-29
[12] = system: SW-620
[13] = system: ACHN
[14] = system: 786-0
[15] = system: NCI-H23

Measured: GI50

CN(C)C(=S)/N=c1\ss/c(=N/c2ccccc2)n1C
inactive: [1] > 100 µM | [2] 22.7 µM | [3] > 100 µM | [4] > 100 µM | [5] 30.5 µM | [6] > 100 µM | [7] > 100 µM | [8] 27.2 µM | [9] > 100 µM | [10] > 100 µM | [11] > 100 µM | [12] > 100 µM | [13] > 100 µM | [14] 22.6 µM | [15] > 100 µM

CC(=O)Oc1cc(C)c2c(c1OC(C)=O)CC1(O2)[C@@H](C)CCC2[C@@]3(C)CC[C@H](OC(C)=O)C(C)(C)C3CC[C@]21C (stereo partly specified)
inactive: [1] 3.45 µM | [2] 2.81 µM | [3] 4.57 µM | [4] 1.99 µM | [5] 3.14 µM | [6] 5.13 µM | [7] 2.98 µM | [8] 3.37 µM | [10] 5.46 µM | [11] 5.43 µM | [12] 2.82 µM | [13] 1.67 µM | [14] 2.28 µM | [15] 2.19 µM

O=[N+]([O-])c1ccc(OCCNc2cccc3ccccc23)cc1
inactive: [1] 77.6 µM | [2] > 100 µM | [3] 20.3 µM | [4] 92.9 µM | [5] 94.2 µM | [6] > 100 µM | [7] > 100 µM | [8] > 100 µM | [9] > 100 µM | [10] > 100 µM | [11] 85.5 µM | [12] 57.1 µM | [13] > 100 µM | [14] > 100 µM | [15] 30.6 µM

C[Si](C)(C)OC1(C#N)C2C3CC4C2C(=O)C2C4C3C21 (stereo unspecified)
inactive: [1] > 100 µM | [2] > 100 µM | [3] > 100 µM | [4] > 100 µM | [6] > 100 µM | [7] > 100 µM | [8] > 100 µM | [9] > 100 µM | [12] > 100 µM | [13] > 100 µM | [14] > 100 µM

O=C(Nc1nc2ccccc2n1Cc1ccc(Cl)cc1)NC12CC3CC(CC(C3)C1)C2
inactive: [1] 20.1 µM | [2] 24.3 µM | [3] > 100 µM | [4] 48 µM | [5] 19.9 µM | [6] 53.8 µM | [7] 28.4 µM | [8] 4.12 µM | [9] 26.9 µM | [10] 91.2 µM | [11] 74.3 µM | [12] 65.8 µM | [13] 35.7 µM | [14] 20.5 µM | [15] 16.4 µM

N#C/N=C(\NCCc1c[nH]c2ccccc12)NCc1ccccc1
inactive: [1] 26.8 µM | [2] > 100 µM | [3] 34.9 µM | [4] 20.5 µM | [6] 36.4 µM | [7] 93.8 µM | [8] > 100 µM | [10] > 100 µM | [11] 37.8 µM | [12] > 100 µM | [13] 25.4 µM | [14] 25.5 µM | [15] > 100 µM

CSC1(C)CC2C(CC1N1CCOCC1)C2(C)C (stereo unspecified)
inactive: [1] > 100 µM | [2] > 100 µM | [3] > 100 µM | [4] > 100 µM | [5] 78.2 µM | [6] > 100 µM | [7] > 100 µM | [8] > 100 µM | [9] > 100 µM | [10] > 100 µM | [11] > 100 µM | [13] > 100 µM | [14] > 100 µM | [15] > 100 µM

CCCC(OCC)(OCC)OCC
inactive: [1] > 100 µM | [2] > 100 µM | [3] > 100 µM | [4] > 100 µM | [5] > 100 µM | [6] > 100 µM | [7] > 100 µM | [8] > 100 µM | [9] > 100 µM | [10] > 100 µM | [11] > 100 µM | [13] > 100 µM | [14] > 100 µM | [15] > 100 µM

O=c1c(O)cccn1C1OC(CO)C(O)C1O (stereo unspecified)
inactive: [1] > 100 µM | [4] > 100 µM | [5] > 100 µM | [6] > 100 µM | [7] > 100 µM | [8] > 100 µM | [9] > 100 µM | [10] > 100 µM | [11] > 100 µM | [13] > 100 µM | [14] > 100 µM | [15] > 100 µM

CC(=O)OC1CC2C(C)(C)C(=O)C=C[C@]2(C)C2CCC3(C)C(c4ccoc4)C(=O)[C@H]4O[C@]43[C@]12C (stereo partly specified)
inactive: [1] 17.4 µM | [2] 20 µM | [3] 16 µM | [4] 18.7 µM | [5] 12.6 µM | [7] 23.3 µM | [8] 38.9 µM | [9] 20.8 µM | [10] 26.7 µM | [12] 28.5 µM | [13] 17.9 µM | [14] 18.1 µM | [15] 21.5 µM
